In US11524938B2, “Aromatic sulfonamide derivatives” (Bayer Pharma Aktiengesellschaft, priority 2016, dated 2022) one finds Emax and IC50 data, which are given here for 30 compounds.

Some results are limits rather than exact numbers.

This assay concerns the target T1, human P2X4 (Homo sapiens, UniProt Q99571).
T1 sequence (Q99571 1-388): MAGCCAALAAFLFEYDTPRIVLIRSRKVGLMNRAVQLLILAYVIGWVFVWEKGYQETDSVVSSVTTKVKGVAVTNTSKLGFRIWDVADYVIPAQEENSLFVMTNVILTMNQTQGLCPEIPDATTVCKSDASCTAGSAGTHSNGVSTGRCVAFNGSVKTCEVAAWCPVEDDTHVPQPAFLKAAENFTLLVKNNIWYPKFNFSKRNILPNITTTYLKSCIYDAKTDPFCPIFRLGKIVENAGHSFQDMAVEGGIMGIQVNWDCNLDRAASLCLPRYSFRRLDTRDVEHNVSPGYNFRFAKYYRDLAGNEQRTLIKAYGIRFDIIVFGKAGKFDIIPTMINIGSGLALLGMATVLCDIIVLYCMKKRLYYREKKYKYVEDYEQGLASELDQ
Briefly: Human P2X4 HEK Cell FLIPR Assay. Format: cell-based. The note with it: agonist Bz-ATP at EC80; for Emax: HEK293, HEK293 cells, percentage of maximal inhibition, read-out: Human P2X4 HEK Cells (FLIPR Assay) avg Efficacy [%]; for IC50: HEK293 cells, individual values listed where some fall outside detection range. The essentials:
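HEK293 cells stably expressing human P2X4, Fluo8-AM loaded 30 min at 37° C, then compound 30 min at room temperature (0.5% DMSO, pH 7.4 buffer with 1.8 mM CaCl2). Bz-ATP at its daily-determined EC80 added; calcium fluorescence read over 120 sec; IC50 from peak RFU normalized to agonist control, triplicates.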

Turning to `Cc1cnn(-c2ccc(NC(=O)Cc3ccccc3Cl)cc2S(N)(=O)=O)c1` [Example 248, 2-(2-Chlorophenyl)-N-[4-(4-methyl-1H-pyrazol-1-yl)-3-sulfamoylphenyl]acetamide], the Emax was determined as 74% and the IC50 was found to be 84 nM.

Take `COc1ncn(-c2ccc(NC(=O)Cc3ccccc3Cl)cc2S(N)(=O)=O)n1` [Example 249, 2-(2-Chlorophenyl)-N-[4-(3-methoxy-1H-1,2,4-triazol-1-yl)-3-sulfamoylphenyl]-acetamide]: the Emax turned out to be 72% and the concentration for half-maximal inhibition (IC50) was determined as 8460 nM.

On to `NS(=O)(=O)c1cc(NC(=O)Cc2ccccc2Cl)ccc1-n1cnc(C2CC2)c1` [Example 250, 2-(2-Chlorophenyl)-N-[4-(4-cyclopropyl-1H-imidazol-1-yl)-3-sulfamoylphenyl]-acetamide], for which the Emax worked out at 82% and the half-maximal inhibitory concentration (IC50) was found to be 193 nM.

With `Cc1cn(-c2ccc(NC(=O)Cc3ccccc3Cl)cc2S(N)(=O)=O)cn1` [Example 251, 2-(2-Chlorophenyl)-N-[4-(4-methyl-1H-imidazol-1-yl)-3-sulfamoylphenyl]acetamide], the Emax is 96% and the IC50 was 21 nM.

For `NS(=O)(=O)c1cc(NC(=O)Cc2ccccc2Cl)ccc1-n1ccc(C2CC2)n1` [Example 252, 2-(2-Chlorophenyl)-N-[4-(3-cyclopropyl-1H-pyrazol-1-yl)-3-sulfamoylphenyl]-acetamide], the Emax turned out to be 88% and the IC50 was 808 nM.

Turning to `NS(=O)(=O)c1cc(NC(=O)Cc2ccccc2Cl)ccc1-n1cc2cccnc2n1` [Example 253, 2-(2-Chlorophenyl)-N-[4-(2H-pyrazolo[3,4-b]pyridin-2-yl)-3-sulfamoylphenyl]-acetamide], the Emax was determined as 85% and the IC50 stood at 257 nM.

Take `NS(=O)(=O)c1cc(NC(=O)Cc2ccccc2Cl)ccc1-n1cc2ccncc2n1` [Example 254, 2-(2-Chlorophenyl)-N-[4-(2H-pyrazolo[3,4-c]pyridin-2-yl)-3-sulfamoylphenyl]-acetamide]: the Emax stood at 102% and the half-inhibitory concentration (IC50) worked out at 41 nM.

As to `NS(=O)(=O)c1cc(NC(=O)Cc2ccccc2Cl)ccc1-n1cc2ncccc2n1` [Example 255, 2-(2-Chlorophenyl)-N-[4-(2H-pyrazolo[4,3-b]pyridin-2-yl)-3-sulfamoylphenyl]-acetamide], the Emax was found to be 81% and the IC50 was 25 nM.

On to `COCCc1cnn(-c2ccc(NC(=O)Cc3ccccc3Cl)cc2S(N)(=O)=O)c1` [Example 256, 2-(2-Chlorophenyl)-N-{4-[4-(2-methoxyethyl)-1H-pyrazol-1-yl]-3-sulfamoylphenyl}-acetamide], for which the Emax turned out to be 83% and the IC50 is 130 nM.

As to `NS(=O)(=O)c1cc(NC(=O)Cc2ccccc2Cl)ccc1-n1ccc(F)n1` [Example 257, 2-(2-Chlorophenyl)-N-[4-(3-fluoro-1H-pyrazol-1-yl)-3-sulfamoylphenyl]acetamide], the Emax was found to be 81% and the IC50 worked out at 51 nM.

`NS(=O)(=O)c1cc(NC(=O)Cc2ccccc2Cl)ccc1-n1cc(NCC(F)F)cn1` [Example 258, 2-(2-Chlorophenyl)-N-(4-{4-[(2,2-difluoroethyl)amino]-1H-pyrazol-1-yl}-3-sulfamoyl-phenyl)acetamide]: the Emax amounted to 97% and the IC50 came to 30 nM.

Take `NS(=O)(=O)c1cc(NC(=O)Cc2ccccc2Cl)ccc1-n1cc(CC(F)F)cn1` [Example 259, 2-(2-Chlorophenyl)-N-{4-[4-(2,2-difluoroethyl)-1H-pyrazol-1-yl]-3-sulfamoylphenyl}-acetamide]: the Emax amounted to 91% and the half-inhibitory concentration (IC50) worked out at 50 nM.

For the compound `NS(=O)(=O)c1cc(NC(=O)Cc2ccccc2Cl)ccc1-n1cc(CNCC(F)F)cn1` [Example 260, 2-(2-Chlorophenyl)-N-[4-(4-{[(2,2-difluoroethyl)amino]methyl}-1H-pyrazol-1-yl)-3-sulfamoylphenyl]acetamide], the Emax is 100% and the IC50 stood at 398 nM.

For the compound `NS(=O)(=O)c1cc(NC(=O)Cc2ccccc2Cl)ccc1-c1noc(C(F)(F)F)n1` [Example 261, 2-(2-Chlorophenyl)-N-{3-sulfamoyl-4-[5-(trifluoromethyl)-1,2,4-oxadiazol-3-yl]phenyl}acetamide], the Emax is 81% and the concentration for half-maximal inhibition (IC50) worked out at 111 nM.

As to `Cc1cnn(-c2ccc(NC(=O)Cc3ccccc3F)cc2S(N)(=O)=O)c1` [Example 262, 2-(2-Fluorophenyl)-N-[4-(4-methyl-1H-pyrazol-1-yl)-3-sulfamoylphenyl]acetamide], the Emax worked out at 92% and the IC50 turned out to be 235 nM.

Consider `NS(=O)(=O)c1cc(NC(=O)Cc2ccccc2F)ccc1-n1cnc(C2CC2)c1` [Example 263, N-[4-(4-Cyclopropyl-1H-imidazol-1-yl)-3-sulfamoylphenyl]-2-(2-fluorophenyl)-acetamide], for which the Emax turned out to be 96% and the IC50 came out at 337 nM.

As to `NS(=O)(=O)c1cc(NC(=O)Cc2ccccc2F)ccc1-n1ccc(C2CC2)n1` [Example 264, N-[4-(3-Cyclopropyl-1H-pyrazol-1-yl)-3-sulfamoylphenyl]-2-(2-fluorophenyl)-acetamide], the Emax came out at 76% and the IC50 amounted to 4070 nM.

For the compound `COCCc1cnn(-c2ccc(NC(=O)Cc3ccccc3F)cc2S(N)(=O)=O)c1` [Example 265, 2-(2-Fluorophenyl)-N-{4-[4-(2-methoxyethyl)-1H-pyrazol-1-yl]-3-sulfamoyl-phenyl}acetamide], the Emax came to 84% and the IC50 stood at 352 nM.

For the compound `NS(=O)(=O)c1cc(NC(=O)Cc2ccccc2Cl)ccc1-c1ccccc1` [Example 266, 2-(2-Chlorophenyl)-N-(2-sulfamoylbiphenyl-4-yl)acetamide], the Emax was 94% and the concentration for half-maximal inhibition (IC50) came to 7 nM.

As to `NS(=O)(=O)c1cc(NC(=O)Cc2ccccc2Cl)ccc1-c1cnn(CC2CC2)c1` [Example 267, 2-(2-Chlorophenyl)-N-{4-[1-(cyclopropylmethyl)-1H-pyrazol-4-yl]-3-sulfamoyl-phenyl}acetamide], the Emax worked out at 98% and the IC50 amounted to 2 nM.

With `COCCn1cc(-c2ccc(NC(=O)Cc3ccccc3Cl)cc2S(N)(=O)=O)cn1` [Example 268, 2-(2-Chlorophenyl)-N-{4-[1-(2-methoxyethyl)-1H-pyrazol-4-yl]-3-sulfamoylphenyl}-acetamide], the Emax was 103% and the IC50 was 5 nM.

In the case of `NS(=O)(=O)c1cc(NC(=O)Cc2ccccc2Cl)ccc1-c1cnn(C2CCNCC2)c1` [Example 269, 2-(2-Chlorophenyl)-N-{4-[1-(piperidin-4-yl)-1H-pyrazol-4-yl]-3-sulfamoylphenyl}-acetamide], the Emax came out at 81% and the IC50 came to 1040 nM.

Turning to `NS(=O)(=O)c1cc(NC(=O)Cc2ccccc2F)ccc1-c1cnn(C2CCNCC2)c1` [Example 270, 2-(2-Fluorophenyl)-N-{4-[1-(piperidin-4-yl)-1H-pyrazol-4-yl]-3-sulfamoylphenyl}acetamide], the Emax is 51% and the concentration for half-maximal inhibition (IC50) is more than 25000 nM.

Regarding `NS(=O)(=O)c1cc(NC(=O)Cc2ccccc2Cl)ccc1-c1cnn(C2CNC2)c1` [Example 271, N-{4-[1-(Azetidin-3-yl)-1H-pyrazol-4-yl]-3-sulfamoylphenyl}-2-(2-chlorophenyl)-acetamide], the Emax is 82% and the IC50 is 1150 nM.

As to `NS(=O)(=O)c1cc(NC(=O)Cc2cccc(Cl)c2)ccc1-c1ccccc1` [Example 272, 2-(3-Chlorophenyl)-N-(2-sulfamoylbiphenyl-4-yl)acetamide], the Emax is 90% and the IC50 worked out at 507 nM.

With `Cc1ccn(-c2ccc(NC(=O)Cc3ccccc3Cl)cc2S(N)(=O)=O)n1` [Example 273, 2-(2-Chlorophenyl)-N-[4-(3-methyl-1H-pyrazol-1-yl)-3-sulfamoylphenyl]acetamide], the Emax was found to be 60% and the 50% inhibitory concentration (IC50) was 35 nM.

On to `NS(=O)(=O)c1cc(NC(=O)Cc2ccccc2Cl)ccc1-c1ccc(Cl)nc1` [Example 274, 2-(2-Chlorophenyl)-N-[4-(6-chloropyridin-3-yl)-3-sulfamoylphenyl]acetamide], for which the Emax was determined as 97% and the IC50 stood at 19 nM.

Take `Cc1noc(C)c1-c1ccc(NC(=O)Cc2ccccc2Cl)cc1S(N)(=O)=O` [Example 275, 2-(2-Chlorophenyl)-N-[4-(3,5-dimethyl-1,2-oxazol-4-yl)-3-sulfamoylphenyl]acetamide]: the Emax was 82% and the IC50 amounted to 507 nM.

For `CC1(Cn2cc(-c3ccc(NC(=O)Cc4ccccc4Cl)cc3S(N)(=O)=O)cn2)COC1` [Example 276, 2-(2-Chlorophenyl)-N-(4-{1-[(3-methyloxetan-3-yl)methyl]-1H-pyrazol-4-yl}-3-sulfamoylphenyl)acetamide], the Emax came out at 96% and the half-maximal inhibitory concentration (IC50) is 195 nM.

As to `COCCn1cc(-c2ccc(NC(=O)Cc3ccc(F)cc3Cl)cc2S(N)(=O)=O)cn1` [Example 277, 2-(2-Chloro-4-fluorophenyl)-N-{4-[1-(2-methoxyethyl)-1H-pyrazol-4-yl]-3-sulfamoyl-phenyl}acetamide], the Emax is 90% and the IC50 is 186 nM.

Broadly, the IC50 is the concentration that inhibits the measured activity by half. A low value points to inhibition by little substance.
